Source: patent US20230165788A1, “MULTI-DRUG FORMULATIONS FOR SUBCUTANEOUS BIODEGRADABLE RESERVOIR DEVICE” (Research Triangle Institute, priority 2020, published 2023)
Blank lines part the entries; values can stand above or below the molecule they belong to.

Assays:
[1] = Evaluation of Elvitegravir for use in the device: solubility and dose; type: physicochemical
From the text: (§1) The active agent formulation includes more than one active agent and an excipient. One or more of the more than one active agent can be one or a combination of a therapeutic, a preventative, a prophylactic and/or a contraceptive. […] Not all active agents are amenable for use in the described device. Active agents having sufficient aqueous solubility and stability and dosing requirements and that are amenable to size parameters of the device are suitable for use in the described device. Moreover, in embodiments, the active agents retain a high level of purity that is both safe and efficacious to the user throughout the intended dosage duration and are not susceptible to immediate degradation caused by environmental contents (e.g., body fluids, physiological temperature). In additional embodiments, the solubility of active agents within potential excipients can range from 0.1-50 mg/mL.

HIV = experiment: Evaluation of Elvitegravir for use in the device: potency
From the text: as §1

[2] = non-polymeric refillable implant, rhesus macaques; cited from earlier work
[3] = beagle dogs, cited from earlier work

solubility [1]: relatively low solubility
Compound: COc1cc2c(cc1Cc1cccc(Cl)c1F)c(=O)c(C(=O)O)cn2[C@H](CO)C(C)C [Elvitegravir]
potency (HIV): suboptimal potency

Compound: Nc1nc(=O)n([C@@H]2CS[C@H](CO)O2)cc1F [FTC, emtricitabine]
period of sustained levels of FTC-triphosphate (FTC-TP) [2]: 28 days

Compound: CC(C)OC(=O)[C@H](C)N[P@](=O)(CO[C@H](C)Cn1cnc2c(N)ncnc21)Oc1ccccc1 [TAF, tenofovir alafenamide]
duration of drug delivery ([3]; subdermal silicone implant with PVA-coated channels): 40 days
adverse events ([3]; subdermal silicone implant): without observed adverse events
period of sustained levels of tenofovir diphosphate (TFV-DP) in PBMCs [2]: 83 days
